Assay results published in ChEMBL document CHEMBL1687734, “Pharmacokinetics of EDP-420 after multiple oral doses in healthy adult volunteers and in a bioequivalence study” (Antimicrob Agents Chemother, 2009).

Assays:
Homo sapiens [1] = assay: Toxicity in healthy human in 8 hrs fasted healthy human assessed as changes in liver functions at 200 mg, po administered as single dose of two-100 mg capsules; assay type: organism-based; details: in vivo
[2] = AUC (0 to infinity) in healthy human plasma at 400 mg administered once on day 1 followed by 200 mg once daily for 2 days during 3 days of treatment measured after 3 days; assay type: ADME, organism-based; parameters: dose 400 mg, time infinity
Homo sapiens [3] = assay: Toxicity in healthy human assessed as severe adverse events at 400 mg administered once on day 1 followed by 200 mg once daily for 2 days during 3 days of treatment; assay type: organism-based; details: in vivo
Homo sapiens [4] = assay: Toxicity in healthy human in 8 hrs fasted healthy human assessed as changes in physical examinations at 200 mg, po administered as single dose of suspension; assay type: organism-based; details: in vivo
Homo sapiens [5] = assay: Toxicity in healthy human in 8 hrs fasted healthy human assessed as changes in liver functions at 200 mg, po administered as single dose of suspension; assay type: organism-based; details: in vivo
[6] = Tmax in high-fat fed healthy human plasma at 200 mg, po administered as single dose of two-100 mg capsules; assay type: ADME, organism-based
[7] = Half life in healthy human plasma at 400 mg administered once on day 1 followed by 200 mg once daily for 2 days during 3 days of treatment measured after 3 days; assay type: ADME, organism-based
Homo sapiens [8] = assay: Ratio of AUC (0 to infinity)in 8 hrs fasted healthy human plasma at 200 mg, po administered as single dose of two-100 mg capsules to AUC (0 to infinity) in 8 hrs fasted healthy human plasma assessed as EDP-420 9-keto level at 200 mg, po administered as single dose of two-100 mg capsules; assay type: ADME, organism-based; details: in vivo
Homo sapiens [9] = assay: Toxicity in high-fat fed healthy human assessed as changes in physical examinations at 200 mg, po administered as single dose of two-100 mg capsules; assay type: organism-based; details: in vivo
[10] = AUC (0 to 24 hrs) in Alveolar macrophage of healthy human at 400 mg, po administered as single dose; assay type: ADME, organism-based; details: alveolar macrophages, read-out: Drug uptake
[11] = AUC (0 to last) in healthy human plasma at 400 mg administered once on day 1 followed by 200 mg once daily for 2 days during 3 days of treatment measured after 3 days; assay type: ADME, organism-based; parameters: dose 400 mg, time 0 - last
Homo sapiens [12] = assay: Ratio of Cmax in 8 hrs fasted healthy human plasma at 200 mg, po administered as single dose of two-100 mg capsules to cmax in 8 hrs fasted healthy human plasma assessed as EDP-420 9-keto level at 200 mg, po administered as single dose of two-100 mg capsules; assay type: ADME, organism-based; details: in vivo
[13] = AUC (0 to last) in healthy human plasma at 200 mg, po once daily for 3 days measured after 3 days; assay type: ADME, organism-based; parameters: dose 200 mg, route oral, time 0 - last
[14] = AUC (0 to last) in high-fat fed healthy human plasma at 200 mg, po administered as single dose of two-100 mg capsules; assay type: ADME, organism-based; parameters: dose 200 mg, time 0 - last, route oral
[15] = AUC (0 to last) in 8 hrs fasted healthy human plasma at 200 mg, po administered as single dose of two-100 mg capsules; assay type: ADME, organism-based; parameters: dose 200 mg, route oral, time 0 - last
[16] = AUC (0 to last) in healthy human plasma at 200 mg, po once daily for 3 days measured after 1 day; assay type: ADME, organism-based; parameters: dose 200 mg, time 0 - last, route oral
Homo sapiens [17] = assay: Toxicity in healthy human in 8 hrs fasted healthy human assessed as changes in ECG at 200 mg, po administered as single dose of two-100 mg capsules; assay type: organism-based; details: in vivo
Homo sapiens [18] = assay: Ratio of AUC (0 to 24 hrs) in healthy human plasma at loading dose of 400 mg/day, po once daily measured on 1 day to AUC (0 to 24 hrs) in healthy human plasma at 400 mg administered once on day 1 followed by 200 mg once daily for 2 days during 3 days of treatment measured on day 3; assay type: ADME, organism-based; details: in vivo
[19] = Cmax in healthy human plasma at 400 mg administered once on day 1 followed by 200 mg once daily for 2 days during 3 days of treatment measured after 3 days; assay type: ADME, organism-based; parameters: dose 400 mg
[20] = AUC (0 to last) in healthy human plasma at loading dose of 400 mg/day, po once daily for 3 days measured after 1 day; assay type: ADME, organism-based; parameters: dose 400 mg/day, time 0 - last, route oral
[21] = Half life in 8 hrs fasted healthy human plasma at 200 mg, po administered as single dose of two-100 mg capsules; assay type: ADME, organism-based
[22] = Drug concentration in Epithelial lining fluid of healthy human at 400 mg, po administered as single dose after 24 hrs; assay type: ADME, organism-based; details: read-out: Drug uptake
[23] = Cmax in 8 hrs fasted healthy human plasma at 200 mg, po administered as single dose of suspension; assay type: ADME, organism-based; parameters: dose 200 mg, route oral
Homo sapiens [24] = assay: Toxicity in healthy human in 8 hrs fasted healthy human assessed as incidence of severe adverse events at 200 mg, po administered as single dose of suspension; assay type: organism-based; details: in vivo
Homo sapiens [25] = assay: Toxicity in healthy human assessed as occurrence of mortality at 400 mg administered once on day 1 followed by 200 mg once daily for 2 days during 3 days of treatment; assay type: organism-based; details: in vivo
[26] = Half life in 8 hrs fasted healthy human plasma at 200 mg, po administered as single dose of suspension; assay type: ADME, organism-based
Homo sapiens [27] = assay: Ratio of Cmax in high-fat fed healthy human plasma at 200 mg, po administered as single dose of two-100 mg capsules to cmax in high-fat fed healthy human plasma assessed as EDP-420 9-keto level at 200 mg, po administered as single dose of two-100 mg capsules; assay type: ADME, organism-based; details: in vivo
Homo sapiens [28] = assay: Toxicity in healthy human in 8 hrs fasted healthy human assessed as changes in vital signs at 200 mg, po administered as single dose of two-100 mg capsules; assay type: organism-based; details: in vivo
[29] = Tmax in healthy human plasma at 400 mg administered once on day 1 followed by 200 mg once daily for 2 days during 3 days of treatment measured after 3 days; assay type: ADME, organism-based
Homo sapiens [30] = assay: Ratio of Cmax in 8 hrs fasted healthy human plasma at 200 mg, po administered as single dose of suspension to cmax in 8 hrs fasted healthy human plasma assessed as EDP-420 9-keto level at 200 mg, po administered as single dose of suspension; assay type: ADME, organism-based; details: in vivo
Homo sapiens [31] = assay: Toxicity in healthy human assessed as incidence of severe adverse events at 200 mg, po once daily for 3 days; assay type: organism-based; details: in vivo, 72 h
Homo sapiens [32] = assay: Toxicity in healthy human in 8 hrs fasted healthy human assessed as changes in ECG at 200 mg, po administered as single dose of suspension; assay type: organism-based; details: in vivo
[33] = Drug concentration in Alveolar macrophage of healthy human at 400 mg, po administered as single dose after 24 hrs; assay type: ADME, organism-based; details: alveolar macrophages, read-out: Drug uptake
[34] = Cmax in healthy human plasma at 200 mg, po once daily for 3 days measured after 3 days; assay type: ADME, organism-based; parameters: dose 200 mg, route oral
Homo sapiens [35] = assay: Toxicity in high-fat fed healthy human assessed as changes in vital signs at 200 mg, po administered as single dose of two-100 mg capsules; assay type: organism-based; details: in vivo
[36] = AUC (0 to infinity) in 8 hrs fasted healthy human plasma at 200 mg, po administered as single dose of two-100 mg capsules; assay type: ADME, organism-based; parameters: dose 200 mg, route oral, time infinity
Homo sapiens [37] = assay: Ratio of AUC (0 to 24 hrs) in healthy human plasma at 200 mg, po once daily for 3 days measured after 3 days to AUC (0 to 24 hrs) in healthy human plasma at 200 mg, po once daily for 3 days measured after 1 day; assay type: ADME, organism-based; details: in vivo
[38] = AUC (0 to infinity) in healthy human plasma at 200 mg, po once daily for 3 days measured after 3 days; assay type: ADME, organism-based; parameters: dose 200 mg, route oral, time infinity

CC[C@H]1OC(=O)[C@H](C)C(=O)[C@H](C)[C@@H](O[C@@H]2O[C@H](C)C[C@H](N(C)C)[C@H]2O)[C@@]2(C)C[C@@H](C)/C(=N\C(C)=O)[C@H](C)[C@@H](OC/C(=N\OCc3ccc(-n4cccn4)nc3)CO2)[C@]1(C)O [MODITHROMYCIN]
Activity (Homo sapiens [1]): Non-toxic | AUC(0-inf) [2]: 15.1 µg·h/mL | Activity (Homo sapiens [3]): Non-toxic | Activity (Homo sapiens [4]): Non-toxic | Activity (Homo sapiens [5]): Non-toxic | Tmax [6]: 4 h | half-life [7]: 17.7 h | Ratio (Homo sapiens [8]): 0.093 | Activity (Homo sapiens [9]): Non-toxic | AUC [10]: 2560 µg·h/mL | AUC(0-t) [11]: 15 µg·h/mL | Ratio (Homo sapiens [12]): 0.058 | AUC(0-t) at 72 h [13]: 16.4 µg·h/mL | AUC(0-t) [14]: 8.94 µg·h/mL | AUC(0-t) [15]: 8.94 µg·h/mL | AUC(0-t) at 24 h [16]: 6.2 µg·h/mL | Activity (Homo sapiens [17]): Non-toxic | Ratio AUC (Homo sapiens [18]): 0.99 | Cmax [19]: 514 ng/mL | AUC(0-t) at 24 h [20]: 8.1 µg·h/mL | half-life [21]: 16.9 h | concentration at 24 h [22]: 6500 ng/mL | Cmax [23]: 381 ng/mL | Activity (Homo sapiens [24]): Non-toxic | Activity (Homo sapiens [25]): Non-toxic | half-life [26]: 16.8 h | Ratio (Homo sapiens [27]): 0.092 | Activity (Homo sapiens [28]): Non-toxic | Tmax [29]: 3.5 h | Ratio (Homo sapiens [30]): 0.065 | Activity (Homo sapiens [31]): Non-toxic | Activity (Homo sapiens [32]): Non-toxic | concentration at 24 h [33]: 68000 ng/mL | Cmax [34]: 559 ng/mL | Activity (Homo sapiens [35]): Non-toxic | AUC(0-inf) [36]: 9.03 µg·h/mL | Ratio AUC (Homo sapiens [37]): 1.4 | AUC(0-inf) [38]: 16.4 µg·h/mL
